Laboratory results: patent US20090036416A1, “Novel CXCR4 Antagonist and Use Thereof” (Kyoto University, priority 2005, published 2009)

Key:
CXCR4 [1] = biological target: T1, CXCR4 (Homo sapiens, UniProt P61073); assay: CXCR4 antagonistic activity: inhibition of Ca2+ movement induced by SDF-1a in CXCR4 transfected CHO cells (Fura-2); assay type: cell-based; details: for CXCR4 antagonistic activity (in words): comment in the text on Tables 1 to 3
Procedure: Various aromatic compounds each having a dipicolylamine-zinc complex were prepared, and their CXCR4 antagonistic effects were examined using the following method.
A CXCR4 transfected Chinese hamster ovary(CHO) cells (3×10^4 cell/100 μL/well) were plated in each well of a flat-bottomed micro-titer tray. The samples were incubated in a CO2 incubator at 37° C., and the cells were loaded in Ham F-12 buffer(80 μL/well) for an hour at 37° C., together with 5 μM Fura-2AM (Dojindo, Kumatomo, Japan), 2.5 mM Probenecid (Sigma) and 20 mM HEPES(pH7.4).
Thereafter, the cells were washed twice with Hank's balanced salt solution (100 μL×2), and placed in a spectrofluorimeter (96 well Fluorescence Drug Screening System, Hamamatsu Photonics K.K. Japan). 30 seconds after the measurement started, the cells were incubated in Hank's balanced salt solution with plural test compounds of different concentrations. After 3 minutes, recombinant SDF-1a (PreproTech, 30 nM/[…]/well) was added.
Changes of the CXCR4 transfect CHO cell system loaded with Fura2-A[Ca^2+], were recorded in real time with a modification method of Fura-2. The CXCR4 antagonistic effect was measured based on the inhibition of Ca^2+ movement induced by the stimulation of SDF-1a via CXCR4 (IC50).

CXCR4 [2] = biological target: T1, CXCR4; assay: CXCR4 binding activity: inhibition of 125I-SDF-1a bonding to CXCR4 transfected CHO cells
Procedure: A CXCR4 transfected CHO cells suspended in Ham's F-12 buffer (0.5% bovine serum albumin, 20 mM HEPES buffer) were placed in a silicon-coated test tube (5×10^5 cells/120 μL/well). Cold SDF-1 a (Final concentration 0.1 μM, 15 μL/well) and a test object having one of various concentrations (15 μL/well) was added to the test tube. Thereafter, ^125I-SDF-1a (PerkinElmer, final concentration=0.1 nM, 15 μL/well) was added. The sample was incubated for an hour at 0° C., mixed with oil (dibutyl phthalate: olive oil=4:1(v/v), 500 μL/well), then centrifuged for 2 minutes at 14,000 rpm. After removing the water layer and the organic layer, the bottom part was separated from the test tube and was placed in a radioimmunoassay counting tube. Thereafter, count per minute (CPM) was measured with a γ-counter.
Inhibition rate (%)=(Et−Ea)/(Et−Ec)×100

HIV-1IIIB = details: read-out: EC50 (anti-HIV-1 activity); HIV-1IIIB infected MT-4 cells, virus number/cells number=0.01, five days, MTT viable cell count
Procedure: The method carries out measurement of anti-HIV-1 activity based on the inhibition effect with respect to cellular degeneration induced in the MT-4 cells by HIV-1.
MT-4 and MOLT-4 cells, human T-cell systems, are incubated in a RPMI1640 culture medium containing 10% heat-inactivated fetal bovine serum, 100 IU/mL of penicillin, and 100 mg/mL of streptomycin.
HIV-1IIIB, an X4-HIV-1-strain, was used as virus. The virus was obtained from a culture solution supernatant of MOLT-4/HIV-1IIIB cells persistently infected with HIV-1, and was kept at −80° C. before use.
Plural test compounds of different concentrations were individually added to HIV-1 infected MT-4 cells (virus number/cells number=0.01), and the samples were plated in the wells of a flat-bottomed micro-titer tray (1.5×10^4 cells/well). The samples were incubated in a CO2 incubator for five days at 37° C. A viable cell count was carried out (EC50) with an MTT method.

T1 sequence (P61073 whole entry): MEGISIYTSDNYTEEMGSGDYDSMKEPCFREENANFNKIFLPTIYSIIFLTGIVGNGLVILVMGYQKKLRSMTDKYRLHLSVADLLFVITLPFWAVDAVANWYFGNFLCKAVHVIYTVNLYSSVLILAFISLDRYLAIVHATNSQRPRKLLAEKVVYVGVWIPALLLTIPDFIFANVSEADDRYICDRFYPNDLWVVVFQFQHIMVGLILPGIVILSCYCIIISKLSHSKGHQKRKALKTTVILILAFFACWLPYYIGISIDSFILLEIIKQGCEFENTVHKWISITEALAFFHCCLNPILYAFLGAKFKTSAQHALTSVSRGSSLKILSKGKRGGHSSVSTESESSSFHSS

Molecule	IC50 (CXCR4 [1])	other results
C[C@H](NC(=O)[C@H](CCCNC(=N)N)NC(=O)c1ccc(CNCc2ccccn2)cc1)c1cccc2ccccc12 [Reference Example Compound III, reference compound]	240 nM	IC50 (CXCR4 [2]): 34 nM
c1ccc(CN(Cc2ccccn2)Cc2c3ccccc3cc3ccccc23)nc1 [Example Compound 8]	770 nM	–
c1ccc(CN(Cc2ccc(-c3ccc(CN(Cc4ccccn4)Cc4ccccn4)cc3)cc2)Cc2ccccn2)nc1 [Comparative Example Compound B, reference compound]	> 10000 nM	–
9,10-bis[(2,2′-dipicolylamino) methyl]anthracene/Zn complex [Example Compound 9]	–	CXCR4 antagonistic activity (in words) (CXCR4 [1]): high activity; IC50 (CXCR4 [1]; inhibition of Ca2+ movement induced by SDF-1a (30 nM) via CXCR4, CXCR4 transfected CHO cells): 240 nM
c1ccc(CN(Cc2cccc(-c3cccc(CN(Cc4ccccn4)Cc4ccccn4)c3)c2)Cc2ccccn2)nc1 [Example Compound 3]	350 nM	–
c1ccc(CN(Cc2ccc(CN(Cc3ccccn3)Cc3ccccn3)cc2)Cc2ccccn2)nc1 [Comparative Example Compound A, reference compound]	> 10000 nM	–
c1ccc(CN(Cc2ccnc(-c3cc(CN(Cc4ccccn4)Cc4ccccn4)ccn3)c2)Cc2ccccn2)nc1 [Example Compound 5]	460 nM	–
bis(2,2′-dipicolylamino)-p-xylene/zinc complex [Example Compound 1]	–	CXCR4 antagonistic activity (in words) (CXCR4 [1]): strong CXCR4 antagonistic activity; CXCR4 bonding activity (in words) (CXCR4 [2]; comment in the text on Table 4): comparative to that of Reference Example Compound III (KRH-1636); EC50 (HIV-1IIIB): 7100 nM
